{"source": "ChEMBL document CHEMBL3044589", "about": "“Effects of propylene oxide doses on Cyperus and Belonolaimus control and nutrient absorption in tomato” (2007)", "key": {"[1]": {"tested_on": "Cyperus", "assay": "Herbicidal activity against Cyperus at 850 l/ha applied 12 days prior to tomato transplantation measured after 14 weeks relative to control", "type": "functional"}, "[2]": {"tested_on": "Cyperus", "assay": "Herbicidal activity against Cyperus at 775 l/ha applied 12 days prior to tomato transplantation measured after 8 weeks relative to control", "type": "functional"}, "[3]": {"tested_on": "Solanum lycopersicum", "assay": "Increase in Solanum lycopersicum (tomato) plant yield at […] applied 12 days prior to transplantation measured after 12 to 14 weeks relative to untreated-control", "type": "functional"}, "[4]": {"tested_on": "Solanum lycopersicum", "assay": "Increase in Solanum lycopersicum (tomato) foliar phosphorus concentration at 190 to 950 l/ha applied 12 days prior to transplantation measured after 4 weeks (reference value: 0.31%)", "type": "functional"}, "[5]": {"tested_on": "Solanum lycopersicum", "assay": "Increase in Solanum lycopersicum (tomato) plant yield at 760 l/ha applied 12 days prior to transplantation measured after 12 to 14 weeks relative to untreated-control", "type": "functional"}, "[6]": {"tested_on": "Solanum lycopersicum", "assay": "Increase in Solanum lycopersicum (tomato) plant vigor at 190 to 950 l/ha applied 12 days prior to transplantation measured after 10 weeks", "type": "functional, organism-based"}, "[7]": {"tested_on": "Cyperus", "assay": "Herbicidal activity against Cyperus at 190 l/ha applied 12 days prior to tomato transplantation measured after 4 weeks relative to control", "type": "functional"}, "[8]": {"tested_on": "Solanum lycopersicum", "assay": "Increase in Solanum lycopersicum (tomato) foliar potassium concentration at 190 to 950 l/ha applied 12 days prior to transplantation measured after 4 weeks (reference value: 2.38%)", "type": "functional"}, "[9]": {"tested_on": "Belonolaimus", "assay": "Nematocidal activity against Belonolaimus at 190 to 950 l/ha applied 12 days prior to tomato transplantation measured after 14 weeks", "type": "functional, organism-based"}, "[10]": {"tested_on": "Cyperus", "assay": "Herbicidal activity against Cyperus at 190 to 950 l/ha applied 12 days prior to tomato transplantation measured after 4 to 14 weeks relative to control", "type": "functional, organism-based"}, "[11]": {"tested_on": "Solanum lycopersicum", "assay": "Increase in Solanum lycopersicum (tomato) plant yield at 190 to 950 l/ha applied 12 days prior to transplantation measured after 12 to 14 weeks", "type": "functional, organism-based"}}, "note": "The source made the active and inactive calls. The rule behind the calls is not given here.", "data": [{"smiles": "CC1CO1", "note": "(stereo unspecified) [PROPYLENE OXIDE]", "values": [{"measurement": "Activity", "setting": "[1]", "result": 80, "unit": "%"}, {"measurement": "Activity", "setting": "[2]", "result": 80, "unit": "%"}, {"measurement": "fold change (FC)", "setting": "[3]", "result": 3.5}, {"measurement": "Activity", "setting": "[4]", "result": 0.51, "unit": "%"}, {"measurement": "fold change (FC)", "setting": "[5]", "result": 4.1}, {"measurement": "Activity", "setting": "[6]", "result": "Active"}, {"measurement": "Activity", "setting": "[7]", "result": 80, "unit": "%"}, {"measurement": "Activity", "setting": "[8]", "result": 3.25, "unit": "%"}, {"measurement": "Activity", "setting": "[9]", "result": "Active"}, {"measurement": "Activity", "setting": "[10]", "result": "Active"}, {"measurement": "Activity", "setting": "[11]", "result": "Active"}]}]}
